Counter-ions that a name gives are not always drawn.
Tests used:
IL-6 = test: THP-1 AlphaLISA IL-6 cytokine assay; type: cell-based; details: Homo sapiens
Method: (§1) Biological Example 1—THP-1 AlphaLISA IL-1β and IL-6 Cytokine Assay Measuring Inhibitory Effects on IL-1, and IL-6 Cytokine Output from THP-1s The cytokine inhibition profiles of compounds of formula (I) were determined in a differentiated THP-1 cell assay. All assays were performed in RPMI-1640 growth medium (Gibco), supplemented with 10% fetal bovine serum (FBS; Gibco), 1% penicillin-streptomycin and 1% sodium pyruvate unless specified otherwise. The IL-1β and IL-6 cytokine inhibition assays were each run in a background of differentiated THP-1 cells as described below. All reagents described were from Sigma-Aldrich unless specified otherwise. Compounds were prepared as 10 mM DMSO stocks. THP-1 cells were expanded as a suspension up to 80% confluence in appropriate growth medium. Cells were harvested, suspended, and treated with an appropriate concentration of phorbol 12-myristate 13-acetate (PMA) over a 72 hr period (37° C./5% CO2). Following 72 hrs of THP-1 cell incubation, cellular medium was removed and replaced with fresh growth media containing 1% of FBS. Working concentrations of compounds were prepared separately in 10% FBS treated growth medium and pre-incubated with the cells for 30 minutes (37° C./5% CO2). Following the 30 minute compound pre-incubation, THP-1s were treated with an appropriate concentration of LPS and the THP-1s were subsequently incubated for a 24 hr period (37° C./5% CO2). An appropriate final concentration of Nigericin was then dispensed into the THP-1 plates and incubated for 1 hour (37° C./5% CO2) before THP-1 supernatants were harvested and collected in separate polypropylene 96-well holding plates. Reagents from each of the IL-1β and IL-6 commercial kits (Perkin Elmer) were prepared and run according to the manufacturer's instructions. Subsequently, fluorescence signal detection in a microplate reader was measured (EnVision® Multilabel Reader, Perkin Elmer). Percentage inhibition was calculated per cytokine by normalizing the sample data to the high and low controls used within each plate (+/−LPS respectively). Percentage inhibition was then plotted against compound concentration and the 50% inhibitory concentration (IC50) was determined from the resultant concentration-response curve.

IL-1β = test: THP-1 AlphaLISA IL-1β cytokine assay; type: cell-based; details: for IC50: Homo sapiens, differentiated THP-1 cells, Table 2, compounds of formula (II)
Method: as §1

hepatocytes [1] = test: Hepatocyte stability assay, mouse; type: in vitro ADME; details: 10 μM compound, Table 6
Source text: (§2) Biological Example 3—Hepatocyte Stability Assay
(§3) Defrosted cryo-preserved hepatocytes (viability >70%) are used to determine the metabolic stability of a compound via calculation of intrinsic clearance (CIint; a measure of the removal of a compound from the liver in the absence of blood flow and cell binding). Clearance data are particularly important for […] as they can be used in combination with in vivo data to predict the half-life and oral bioavailability of a drug.
(§4) The metabolic stability in hepatocytes assay involves a time-dependent reaction using both positive and negative controls. The cells must be pre-incubated at 37° C. then spiked with test compound (and positive control); samples taken at pre-determined time intervals are analysed to monitor the change in concentration of the initial drug compound over 60 minutes. A buffer incubation reaction (with no hepatocytes present) acts as a negative control and two cocktail solutions, containing compounds with known high and low clearance values (verapamil/7-hydroxycoumarin and propranolol/diltiazem), act as positive controls. • 1. The assay is run with a cell concentration of 0.5×10^6 cells/mL in Leibovitz buffer. • 2. All compounds and controls are run in duplicate. • 3. Compound concentration is 10 μM. • 4. All compounds and controls are incubated with both cells and buffer to show turnover is due to hepatic metabolism. • 5. All wells on the incubation plate will have 326.7 μL of either cells or buffer added. • 6. Prior to assay, cell and buffer-only incubation plates are preincubated for 10 mins at 37° C. • 7. The assay is initiated by adding compounds, 3.3 μL of 1 mM in 10% DMSO-90% Buffer; final DMSO concentration is 0.1%. • 8. Samples are taken at regular timepoints (0, 5, 10, 20, 40, 60 min) until 60 mins. • 9. Sample volume is 40 μL and it is added to 160 μL of crash solvent (acetonitrile with internal standard) and stored on ice. • 10. At the end of the assay, the crash plates are centrifuged at 3500 rpm for 20 mins at 4° C. • 11. 80 μL of clear supernatant is removed and mixed with 80 μL of deionised water before being analysed by LC-MS/MS.
(§5) Raw LC-MS/MS data are exported to, and analysed in, Microsoft Excel for determination of intrinsic clearance. The percentage remaining of a compound is monitored using the peak area of the initial concentration as 100%. Intrinsic clearance and half-life values are calculated using a graph of the natural log of percentage remaining versus the time of reaction in minutes. Half-life (min) and intrinsic clearance (CIint in μL min^−1 10^−6 cells) values are calculated using the gradient of the graph (the elimination rate constant, k) and Equations 1 and 2.

hepatocytes [2] = test: Hepatocyte stability assay, human; type: in vitro ADME; details: 10 μM compound, Table 6
Source text: as §2, §3, §4, §5

NRF2 = NRF2 activation assay (DiscoverX PathHunter NRF2 translocation kit, U2OS cells); type: cell-based
Method: Biological Example 2—NRF2 Activation Assay Measuring Compound Activation Effects on the Anti-Inflammatory Transcription Factor NRF2 in DiscoverX PathHunter NRF2 Translocation Kit Potency and efficacy of compounds of formula (I) against the target of interest to activate NRF2 (nuclear factor erythroid 2-related factor 2) were determined using the PathHunter NRF2 translocation kit (DiscoverX). The NRF2 translocation assay was run using an engineered recombinant cell line, utilising enzyme fragment complementation to determine activation of the Keap1-NRF2 protein complex and subsequent translocation of NRF2 into the nucleus. Enzyme activity was quantified using a chemiluminescent substrate consumed following the formation of a functional enzyme upon PK-tagged NRF2 translocation into the nucleus. Additionally, a defined concentration of dimethyl fumarate was used as the ‘High’ control to normalise test compound activation responses to. U2OS PathHunter eXpress cells were thawed from frozen prior to plating. Following plating, U2OS cells were incubated for 24 hrs (37° C./5% CO2) in commercial kit provided cell medium. Following 24 hrs of U2OS incubation, cells were directly treated with an appropriate final concentration of compound. Following compound treatment, the U2OS plates were incubated for a further 6 hours (37° C./5% CO2) before detection reagent from the PathHunter NRF2 commercial kit was prepared and added to test plates according to the manufacturer's instructions. Subsequently, the luminescence signal detection in a microplate reader was measured (PHERAstar®, BMG Labtech). Percentage activation was calculated by normalising the sample data to the high and low controls used within each plate (+/−DMF). Percentage activation/response was then plotted against compound concentration and the 50% activation concentration (EC50) was determined from the plotted concentration-response curve.

[3] = THP-1, differentiated THP-1 cells, Table 2, compounds of formula (II)
[4] = +GSH, Table 4, compounds of formula (II)
[5] = −GSH, Table 4, compounds of formula (II)

| SMILES | IC50 (IL-6; [3]) [µM] | IC50 (IL-1β) [µM] | other results |
| --- | --- | --- | --- |
| N#C[C@H]1C[C@](OC(=O)/C=C/C(=O)O)(c2ccc(C(F)(F)F)cc2)C1 (single isomer, unassigned) [Intermediate 34, (E)-4-((cis)-3-cyano-1-(4-(trifluoromethyl)phenyl)cyclobutoxy)-4-oxobut-2-enoic acid] | 30 to 50 | 6 to 30 |  |
| O=C(O)/C=C/C(=O)OC(c1ccc(C(F)(F)F)cc1)C(F)(F)F (single isomer, unassigned) [Intermediate 45, (E)-4-oxo-4-(2,2,2-trifluoro-1-(4-(trifluoromethyl)phenyl)ethoxy)but-2-enoic acid] |  |  | CIint (hepatocytes [1]): + (+ means >110-277); T½ (hepatocytes [1]): 4 min; CIint (hepatocytes [2]): ++ (++ means >30-110); T½ (hepatocytes [2]): ++ (++ means 5-29) |
| CC1(OC(=O)/C=C/C(=O)O)CCC1 [Intermediate 4, (E)-4-(1-methylcyclobutoxy)-4-oxobut-2-enoic acid] |  | > 100 | activity in the THP-1 cytokine assays (in words) (IL-1β; THP-1 IL-1β and IL-6 assays): not active; EC50 (NRF2; [4]): 23 to 48.4 µM; NRF2 activation Emax (NRF2; [4]): + (+ means >50-<87%); EC50 (NRF2; [5]): < 23 µM; NRF2 activation Emax (NRF2; [5]): +++ (+++ means >114-150%) |
| CCCCCCCCOC(=O)/C=C/C(=O)O [Intermediate 5, Octyl Fumarate] |  |  | EC50 (NRF2; [4]): < 23 µM; NRF2 activation Emax (NRF2; [4]): ++++ (++++ means >150%); EC50 (NRF2; [5]): < 23 µM; NRF2 activation Emax (NRF2; [5]): ++++ (++++ means >150%) |
| O=C(O)/C=C/C(=O)OC1(c2ccc(C(F)(F)F)cn2)CCC1 [Intermediate 9, (E)-4-oxo-4-(1-(5-(trifluoromethyl)pyridin-2-yl)cyclobutoxy)but-2-enoic acid] | 6 to 30 | 6 to 30 |  |
| O=C(O)/C=C/C(=O)OC1(c2ccccc2C(F)(F)F)CCC1 [Intermediate 11, (E)-4-oxo-4-(1-(2-(trifluoromethyl)phenyl)cyclobutoxy)but-2-enoic acid] | > 100 | 50 to 100 |  |
| O=C(O)/C=C/C(=O)OC1(c2ccc(Cl)cc2)CCC1 [Intermediate 13, (E)-4-(1-(4-chlorophenyl)cyclobutoxy)-4-oxobut-2-enoic acid] | 6 to 30 | 6 to 30 |  |
| O=C(O)/C=C/C(=O)OC1(c2ccc(C(F)(F)F)nc2)CCC1 [Intermediate 15, (E)-4-oxo-4-(1-(6-(trifluoromethyl)pyridin-3-yl)cyclobutoxy)but-2-enoic acid] | > 100 | 30 to 50 |  |
| O=C(O)/C=C/C(=O)OC1(c2ccc(Br)cn2)CCC1 [Intermediate 23, (E)-4-(1-(5-bromopyridin-2-yl)cyclobutoxy)-4-oxobut-2-enoic acid] |  | 6 to 30 | IC50 (IL-6; differentiated THP-1 cells, Table 2, compounds of formula (II)): 6 to 30 µM |
| O=C(O)/C=C/C(=O)OC1(c2ccc(Cl)cn2)CCC1 [Intermediate 24, (E)-4-(1-(5-chloropyridin-2-yl)cyclobutoxy)-4-oxobut-2-enoic acid] | 6 to 30 | 30 to 50 |  |
| N#Cc1ccc(C2(OC(=O)/C=C/C(=O)O)CCC2)cc1 [Intermediate 27, (E)-4-(1-(4-cyanophenyl)cyclobutoxy)-4-oxobut-2-enoic acid] | 6 to 30 | 50 to 100 |  |
| O=C(O)/C=C/C(=O)OC1(c2cc(F)c(F)c(F)c2)CCC1 [Intermediate 28, (E)-4-oxo-4-(1-(3,4,5-trifluorophenyl)cyclobutoxy)but-2-enoic acid] | 6 to 30 | 6 to 30 |  |
| O=C(O)/C=C/C(=O)OC1(c2ccc(C(F)F)cc2)CCC1 [Intermediate 31, (E)-4-(1-(4-(difluoromethyl)phenyl)cyclobutoxy)-4-oxobut-2-enoic acid] | 6 to 30 | 6 to 30 |  |
| O=C(O)/C=C/C(=O)OC1(c2ccc(C(F)(F)F)cc2)CCOCC1 [Intermediate 35, (E)-4-oxo-4-((4-(4-(trifluoromethyl)phenyl)tetrahydro-2H-pyran-4-yl)oxy)but-2-enoic acid] | > 100 | 50 to 100 |  |
| O=C(O)/C=C/C(=O)OC1(c2ncc(C(F)(F)F)cn2)CCC1 [Intermediate 39, (E)-4-oxo-4-(1-(5-(trifluoromethyl)pyrimidin-2-yl)cyclobutoxy)but-2-enoic acid] | 30 to 50 | 30 to 50 |  |
| COc1cc(OC)cc(C2(OC(=O)/C=C/C(=O)O)CCC2)c1 [Intermediate 40, (E)-4-(1-(3,5-dimethoxyphenyl)cyclobutoxy)-4-oxobut-2-enoic acid] | 30 to 50 | > 100 |  |
| COC(=O)/C=C/C(=O)OC [dimethyl fumarate, Dimethyl fumarate, reference compound] |  |  | IC50 (IL-6; THP-1, differentiated THP-1 cells, LPS then Nigericin, Table 1): 9.3 µM; EC50 (NRF2; +GSH, Table 3): > 100 µM; NRF2 activation Emax (NRF2; +GSH, normalised to dimethyl fumarate high control, Table 3): 17.1%; EC50 (NRF2; −GSH, Table 3): 6.1 µM; NRF2 activation Emax (NRF2; −GSH, normalised to dimethyl fumarate high control, Table 3): 100% |
| COC(=O)/C=C/C(=O)O [monomethyl fumarate, Monomethyl fumarate, reference compound] | > 100 | > 100 | EC50 (NRF2; [4]): 48.4 µM; NRF2 activation Emax (NRF2; [4]): 87%; EC50 (NRF2; [5]): 23 µM; NRF2 activation Emax (NRF2; [5]): 114% |
